Patent US4208424A, “Lipogenesis inhibition by certain esters of substituted benzodioxincarboxylic acids” (Shell Oil Company, priority 1979, dated 1980)

Test system: lipogenesis in swine adipose tissue
Assay: inhibition of lipogenesis (incorporation of radioactive glucose carbon into lipid) in swine adipose tissue slices
Format: cell-based
Settings: 100 micrograms per milliliter, 37° C., 2 hours, glucose-U^14 C, insulin, 5% DMSO, triplicate
Text: The manner in which they cause this effect is not known with certainty; it is believed that they interfere with the synthesis of fatty acids in the tissues. Their effectiveness for this purpose has been ascertained by immersing samples of swine adipose tissue in a liquid medium containing radioactive glucose and the test chemical for a period of time, then isolating the lipid from the treated tissue and determining the incorporation of the radioactive carbon into lipid by means of scintillation counting techniques. These tests were conducted in swine adipose tissues because in swine, the primary site of lipogenesis--i.e., fatty acid synthesis--appears to be adipose tissue.
Described in more detail, the tests were conducted according to the following general procedure:
150 milligrams of slices of swine adipose tissue were incubated at 37° C. for 2 hours with shaking in 3 milliliters of Krebs-Ringer bicarbonate solution containing one-half the normal calcium ion concentration, 60 micromoles of glucose, 0.5 micro-Curie of glucose-U^14 C, and 300 microunits of insulin, and 5% dimethyl sulfoxide (DMSO). The test compounds were added as a solution or suspension in DMSO and were present at a concentration of 100 micrograms per milliliter of the incubation mixture.
The incubation was terminated by addition of 0.25 milliliter of 1 N sulfuric acid. The resulting mixture was extracted with a total of 25 milliliters of chloroform/methanol (2:1 v/v). The extracts were washed according to Folch et al. (J. Biol. Chem. 226, 497-509, (1957)), air dried, and counted in a liquid scintillation counter with 15 m milliliters of counting fluid (two parts toluene containing 0.4% w/v New England Nuclear Omnifluor/1 part Triton X-100). The tests were conducted in triplicate and were accompanied by control tests in which all ingredients,proportions and conditions were the same except that no test compound was included. From the data obtained were calculated the percent inhibition of lipid synthesis by the test compounds in each case. The data obtained from the tests are set out in Table 1, as the percent inhibition of lipogenesis compared to the results obtained in the control tests wherein only the test compound was omitted.

Molecule	Percent Inhibition (of lipogenesis compared to control tests)
CCOC(=O)C1COc2ccccc2O1 (stereo not shown) [Compound 1, Ethyl 2,3-dihydro-1,4-benzodioxin-2-carboxylate]	22%
CCOC(=O)C1COc2cc(C)c(C)cc2O1 (stereo not shown) [Compound 6, Ethyl 2,3-dihydro-6,7-dimethyl-1,4-benzodioxin-2-carboxylate]	29%
CCOC(=O)C1COc2cc(-c3ccccc3)ccc2O1 (stereo not shown) [Compound 7, Ethyl 2,3-dihydro-6-phenyl-1,4-benzodioxin-2-carboxylate]	21%
CCOC(=O)C1COc2ccc(-c3ccccc3)cc2O1 (stereo not shown) [Compound 8, Ethyl 2,3-dihydro-7-phenyl-1,4-benzodioxin-2-carboxylate]	28%
CCOC(=O)C1COc2ccc(C(C)O)cc2O1 (stereo not shown) [Compound 9, Ethyl 2,3-dihydro-7-(1-hydroxyethyl)-1,4-benzodioxin-2-carboxylate]	90%
Ethyl 2,3-dihydro-6(and 7)-fluoro-1,4-benzodioxin-2-carboxylate [Compound 3]	48%
Ethyl 2,3-dihydro-6(and 7)-methoxy-1,4-benzodioxin-2-carboxylate [Compound 10]	85%
Ethyl 2,3-dihydro-6(and 7)-methyl-1,4-benzodioxin-2-carboxylate [Compound 2]	30%
Ethyl 2,3-dihydro-8(and 5)-methoxy-1,4-benzodioxin-2-carboxylate [Compound 5]	86%
Ethyl 6(and 7)-bromo-2,3-dihydro-1,4-benzodioxin-2-carboxylate [Compound 4]	43%
